From patent publication US9718840B2, “Condensed 5-oxazolidinone derivative” (SUMITOMO DAINIPPON PHARMA CO., LTD., priority 2014, dated 2017) come the findings set out here.

The target in one series is T1, Human FXIIa (Homo sapiens, UniProt P00748).
T1 construct: 5) Factor XIIa (FXIIa); purchased Enzyme Research Laboratories
The series can be described thus: Enzyme selectivity evaluation test: FXIIa. The series is classed as biochemical. How it is done:
S-2288 (H-D-Ile-Pro-Arg-pNA.2HCl) was added as the substrate at a final concentration of 300 μmol/L. After progression of the reaction, the absorbance was measured at OD 405 nm.

For the next series, the target named is Human Trypsin. The series can be described thus: Enzyme selectivity evaluation test: trypsin. Format: biochemical. On the procedure:
S-2222 (Bz-Ile-Glu(γ-OR)-Gly-Arg-pNA.HCl (SEQ ID NO: 1), R═H (50%) and R═CH3 (50%)) was added as the substrate at a final concentration of 150 μmol/L. After progression of the reaction, the absorbance was measured at OD 405 nm.

The next series concerns the target T2, Human FXa (Homo sapiens, UniProt P00742).
T2 construct: 4) Factor Xa (FXa); purchased Enzyme Research Laboratories
The series can be described thus: Enzyme selectivity evaluation test: FXa. The series is classed as biochemical. How it is done: S-2222 (Bz-Ile-Glu(γ-OR)-Gly-Arg-pNAHC1 (SEQ ID NO: 1), R═H (50%) and R═CH3 (50%)) (manufactured by Chromogenix) was added as the substrate at a final concentration of 150 μmol/L. After progression of the reaction, the absorbance was measured at OD 405 nm.

In a further series the target is T3, Human urokinase (Homo sapiens, UniProt P00749).
T3 construct: purchased Calbiochem
Description: Enzyme selectivity evaluation test: urokinase. The series is classed as biochemical. On the procedure:
S-2444 (pyroGlu-Gly-Arg-pNA.HCl) was added as the substrate at a final concentration of 300 μmol/L. After progression of the reaction, the absorbance was measured at OD 405 nm.

Another series has as its target T4, human thrombin (Homo sapiens, UniProt P00734).
T4 construct: human thrombin (manufactured by Enzyme Research Laboratories); purchased Enzyme Research Laboratories
Description: Enzyme selectivity evaluation test: thrombin. Format: biochemical. On the procedure:
S-2366 (pyroGlu-Pro-Arg-pNA.HCl) was added as the substrate at a final concentration of 300 μmol/L. After progression of the reaction, the absorbance was measured at OD 405 nm.

The next series has as its system Dog plasma. Description: Species difference test: aPTT prolongation in plasma. Format: biochemical. How it is done: (§1) The compound of Reference Example 2-6 dissolved in DMSO was added at final concentrations of 0.03 to 200 μmol/L to the plasma of each animal species prepared using 3.2% sodium citrate. The solution was incubated at 37° C. for 6 minutes. Then, an STA reagent Cephascreen (for aPTT assay; manufactured by Roche Diagnostics K.K.) was added thereto in an amount equal to the total amount of the plasma and the DMSO solution, and the mixture was further incubated for 4 minutes. Then, STA calcium chloride (manufactured by Roche Diagnostics K.K.) was added thereto in an amount equal to the total amount of the plasma and the DMSO solution, and the time required for coagulation was measured. The concentration at which the coagulation time was prolonged two times (EC2x) was calculated for each plasma.

The next series concerns human plasma. The series is described as above. Format: biochemical. How it is done: as §1
A further series concerns Cynomolgus monkey plasma. The description is as above. Format: biochemical. On the procedure:
as §1

The next series concerns Rat plasma. The series is described as above. The series is classed as biochemical. On the procedure:
as §1

A further series has as its system Mouse plasma. The description is as above. Format: biochemical. On the procedure: as §1
In another series the test system is Rabbit plasma. The series is described as above. The series is classed as biochemical. On the procedure:
as §1

Series [1] in a line: Dog PK test (Test Example 9). The series is classed as in vivo. The conditions noted are these: plasma, 1 mg/kg, male beagle, intravenous, 1 mg/2 mL/kg, read-out: AUC from 0 hours to 24 hours (compound of Reference Example 2-6 in plasma). How it is done:
The compound of Reference Example 2-6 was dissolved in a mixed solution of saline/0.1 N HCl=9/1, and this solution was intravenously administered at a dose of 1 mg/2 mL/kg to a male beagle. Blood collection was carried out 0.25, 0.5, 1, 2, 4, 6, and 24 hours after administration. 2 mL of blood was collected using a syringe packed with 20 μL of Novo-Heparin Injection, transferred to a centrifugal tube cooled in ice, and centrifuged at 3000 rpm at 4° C. for 10 minutes to prepare plasma. 200 μL of the prepared plasma was added to a tube containing 600 μL of acetonitrile and mixed for approximately 10 seconds using a vortex mixer. Then, the concentration of the compound of Reference Example 2-6 was measured.
The compound of Example 7 was suspended in a 0.5% aqueous methylcellulose solution, and this suspension was orally administered at a dose of 5 mg/5 mL/kg to a male beagle fasted for 16 hours. Blood collection was carried out 0.5, 1, 2, 4, 6, and 24 hours after administration. 2 mL of blood was collected using a syringe packed with 20 μL of Novo-Heparin Injection, transferred to a centrifugal tube cooled in ice, and centrifuged at 3000 rpm at 4° C. for 10 minutes to prepare plasma. […] Then, the concentration of the compound of Reference Example 2-6 was measured.

Structures are written as SMILES. Where only a bound is given, the exact number is not on record here.

T2 sequence (P00742 235-488 limits assumed): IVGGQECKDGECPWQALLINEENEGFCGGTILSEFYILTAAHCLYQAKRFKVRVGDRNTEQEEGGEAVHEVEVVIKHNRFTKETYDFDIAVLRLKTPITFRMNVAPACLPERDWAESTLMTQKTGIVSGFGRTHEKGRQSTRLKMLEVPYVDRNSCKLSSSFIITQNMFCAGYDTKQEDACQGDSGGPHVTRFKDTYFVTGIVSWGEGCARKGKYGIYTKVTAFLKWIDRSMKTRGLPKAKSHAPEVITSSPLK
T2 sequence (P00742 41-179 partner limits assumed): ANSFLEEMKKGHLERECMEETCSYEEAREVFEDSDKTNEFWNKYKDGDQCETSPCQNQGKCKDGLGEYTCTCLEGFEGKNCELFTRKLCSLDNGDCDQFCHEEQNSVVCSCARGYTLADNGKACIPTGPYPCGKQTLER
T1 sequence (P00748 373-615 limits assumed): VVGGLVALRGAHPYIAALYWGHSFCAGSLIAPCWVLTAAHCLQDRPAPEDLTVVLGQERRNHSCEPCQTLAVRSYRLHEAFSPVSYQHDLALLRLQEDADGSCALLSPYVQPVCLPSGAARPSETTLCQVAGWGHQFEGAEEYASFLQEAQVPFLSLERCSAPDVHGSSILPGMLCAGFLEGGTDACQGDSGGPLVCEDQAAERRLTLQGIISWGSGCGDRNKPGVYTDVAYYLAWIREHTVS
T1 sequence (P00748 20-372 partner limits assumed): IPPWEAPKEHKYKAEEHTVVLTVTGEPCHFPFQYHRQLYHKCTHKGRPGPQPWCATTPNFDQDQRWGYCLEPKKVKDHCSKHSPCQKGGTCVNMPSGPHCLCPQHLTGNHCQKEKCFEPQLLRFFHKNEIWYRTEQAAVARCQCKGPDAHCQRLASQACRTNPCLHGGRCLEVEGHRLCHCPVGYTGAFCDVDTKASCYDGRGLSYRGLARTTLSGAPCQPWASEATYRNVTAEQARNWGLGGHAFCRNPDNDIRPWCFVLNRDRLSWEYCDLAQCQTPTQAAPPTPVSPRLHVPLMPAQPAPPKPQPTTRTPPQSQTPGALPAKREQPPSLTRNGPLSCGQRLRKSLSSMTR

As to `Cl.N[C@H](CF)[C@H]1CC[C@H](C(=O)N2CC[C@@H](C3CCCCC3)[C@H]2C(=O)Nc2ccc3[nH]c(C(=O)O)cc3c2)CC1` [Reference Example 2-6, 5-{[(3S)-1-({trans-4-[(1S)-1-Amino-2-fluoroethyl]cyclohexyl}carbonyl)-3-cyclohexyl-L-prolyl]amino}-1H-indole-2-carboxylic acid hydrochloride], the IC50 against Human FXIIa, at Human Trypsin, on Human FXa, against Human urokinase and against human thrombin was above 10 µM in each case. Further, the “EC2x (concentration at which the coagulation time was prolonged two times)” value with Dog plasma was 34.4 µM; in the series on human plasma it was 0.6 µM; with Cynomolgus monkey plasma, 2.6 µM; with Rat plasma, above 200 µM; in the series with Mouse plasma it was above 200 µM; in the series with Rabbit plasma, 34.2 µM. Further, the AUC (usually concentration integrated over time) in [1] came out at 4.42 µg·h/mL.
